Measurements published in a melting point compilation (Tetko et al.; mined from patent text by program, amines drawn as free bases though some values may be those of a salt).

Row | melting point | SMILES
1 | 256 to 259 °C | O=C(O)c1ccc(CCc2ccc(NC(=O)C3CSc4ccccc4C3=O)cc2)cc1 (stereo not drawn)
2 | 50 to 60 °C | CC(C=CC(=O)NCCCN1CCCCC1)=CCc1ccc(Cl)c(Cl)c1
3 | 85 to 86 °C | OCc1nccc(N2CCCC2)c1Cl
4 | 163 °C | NC(=O)N(Cc1ccc(C(F)(F)F)c(N2CCCCC2)c1)c1cccc2c1CC(O)CC2 (stereo not drawn)
5 | 139 to 141 °C | CC1c2cccc3c2N(CC3)c2ccccc2N1C(=O)CCN1CCN(c2ccccc2)CC1 (stereo not drawn)
6 | 138 to 140 °C | O=C(CNc1ccc(O)cc1)N1CCC(Cc2ccccc2)CC1
7 | 210 to 212 °C | Cc1ccc(N2CCN(C)CC2)c2c1CC[C@@H](NC(=O)c1ccc(Cl)cc1)C2
8 | 179 to 181 °C | CC1(C)SC(c2ccccc2O)NC1C(=O)O (stereo not drawn)
9 | 184 °C | O=C(O)Cc1nn(Cc2nc3cc(O)cc(O)c3s2)c(=O)c2ccccc12
10 | 176 °C | O=C(O)c1cccc(F)c1Nc1ccccc1F
11 | 72 to 73 °C | CCOC(=O)C1(c2ccccc2)CCC=CC1OC(C)=O (stereo not drawn)
12 | 39 to 40 °C | O=C(c1ccccc1)c1ccc(Cl)nc1
13 | 96 °C | O=[N+]([O-])c1sc(Oc2ccccc2)nc1Cl
14 | 155 to 157 °C | c1ccc(CCN2CCC(c3cc(-c4ccccn4)[nH]n3)CC2)cc1
15 | 101 to 102 °C | CC(=O)c1ccc(COC(=O)N2CCN(CC3(C)Cn4cc([N+](=O)[O-])nc4O3)CC2)cc1 (stereo not drawn)
16 | 38 to 40 °C | N#Cc1cccc(OCc2ccccc2)c1
17 | 145 to 146 °C | Cc1scc2c1N(C(=O)NCCN1CCC(CCCC3CCCN3C)CC1)c1ccccc1NC2=O (stereo not drawn)
18 | 166 to 168 °C | O=C(Nc1nc(O)cc(-c2ccccc2)n1)C(F)(F)F
19 | 104 to 106 °C | CCOC(=O)C1=C(C)NC(COC(C)=O)=C(C(=O)OCC)C1c1ccccc1 (stereo not drawn)
20 | 171 to 173 °C | c1ccc(OCn2c(Nc3cnon3)nc3ccccc32)cc1
21 | 141 to 143 °C | Cc1cn(COCOC(=O)c2ccccc2)c(=O)[nH]c1=O
22 | 75 to 78 °C | OCCN(Cc1ccccc1)CC1(O)CCN(CCCc2c[nH]c3ccc(-n4cnnc4)cc23)CC1
23 | 162 to 164 °C | CC1(O)NC(=O)OC12CCN(Cc1ccccc1)CC2 (stereo not drawn)
24 | 90 to 93 °C | Cc1ccc(C(=O)OC2CCN(Cc3cccc([N+](=O)[O-])c3)CC2)cc1
25 | 96 to 98 °C | O=C(O)[C@@H](CC(=O)N1CCN(CC(F)(F)F)CC1)Cc1ccccc1
26 | 42 to 43 °C | CC(C)C[C@H](NC(=O)OCCC1c2ccccc2-c2ccccc21)C(=O)O
27 | 242 to 244 °C | CCNc1cc2ncnc(N3CCN(C(=O)Nc4ccc(Oc5ccccc5)cc4)CC3)c2cc1[N+](=O)[O-]
28 | 88 °C | NCC1CCN(Cc2ccccc2)CC1
29 | 168 to 169 °C | CN1CCC(=C2c3cc(Cl)ccc3CC(=O)c3sccc32)CC1
30 | 158 to 160 °C | Clc1cccc(Cl)c1C1=NC2(CO1)COC(c1ccccc1)OC2 (stereo not drawn)

The remaining lines, values behind:

Row | SMILES | melting point
31 | CCCCC(Oc1c(Br)cc(-c2c3ccccc3c(Br)c3sc4ccccc4c23)cc1Br)C(=O)O (stereo not drawn) | 212 to 213 °C
32 | CCc1cc2c(s1)N=C(NNC(=O)NC)CN=C2c1ccccc1Cl | 213 to 215 °C
33 | CN1CC(CNC(=N)NC(=O)c2cncc(Br)c2)CC2c3cccc4c3c(cn4C)CC21 (stereo not drawn) | 140 to 142 °C
34 | Cc1cc(C2=NN(C(=O)N[C@H](C)c3ccccc3)[C@H](C)Cc3cc4c(cc32)OCO4)ccc1[N+](=O)[O-] | 202 to 205 °C
35 | CCOC(=O)c1cn(NC)c2c(F)c(F)c(F)cc2c1=O | 189 °C
36 | CC(Cl)OC(=O)c1ncc[nH]1 (stereo not drawn) | 50 °C
37 | COC(=O)C1=Cc2cc(Br)ccc2N(CC2(C)OCCO2)CC1 | 96 to 99 °C
38 | c1ccc2c(c1)CNC1CC2c2ccccc21 (stereo not drawn) | 115 to 117 °C
39 | COC(=O)C(=O)c1ccc(OCCOc2ccc(-c3ccccc3)cc2)cc1 | 143 to 145 °C
40 | Cc1coc2c1C(=O)CC(c1ccco1)C2 (stereo not drawn) | 60 to 61 °C
41 | COc1nc2cc(Cl)c(Cl)c(N3NN=CC3CCO)c2nc1OC (stereo not drawn) | 212 to 214 °C
42 | Cc1ncc(C(O)=S)cc1OC(C)C | 154 to 155 °C
43 | CC#CCOc1ccc(S(=O)(=O)N(C)C(CCCSc2ccc(Cl)cc2)C(=O)OC)cc1 (stereo not drawn) | 88 to 89 °C
44 | CCc1nsc(C(=O)O)c1C(=O)OC | 43 to 45 °C
45 | O=Cc1ccccc1C(=O)c1ccc(Cl)cc1 | 112 to 113 °C
46 | N#Cc1cc(Cn2cncn2)cc(-c2ccc(O)cc2)c1 | 186 to 187 °C
47 | CC(C)(C)C(O)c1ccc(CO)cc1 (stereo not drawn) | 91 to 95 °C
48 | COc1cc(Nc2c(C#N)cnc3cc(-c4cnc(CN5CCN(C)CC5)n4C)sc23)c(Cl)cc1Cl | 234 to 235 °C
49 | Cc1cc(C)c2c(c1OCC(=O)O)Cc1sc(SCCC(c3ccccc3)c3ccccc3)nc1-2 | 156 to 158 °C
50 | CCc1cc2c(cc(C(N)=O)c(=O)n2Cc2ccc(-c3ccccc3-c3nnn(C(c4ccccc4)(c4ccccc4)c4ccccc4)n3)cc2)c(CC)n1 | 162 to 165 °C
51 | COc1cc2c(c(C(C)C)c1OC)CC(C)C=C2 (stereo not drawn) | 56 to 57 °C
52 | Cc1ccc2ncn(C3CCC(=O)NC3=O)c(=O)c2c1 (stereo not drawn) | 285 to 287 °C
53 | O=[N+]([O-])c1cccc(-c2csc(Nc3ccccc3C(F)(F)F)n2)c1 | 182 °C

Row | SMILES | melting point
54 | CCn1ccc(C(=O)c2cc(C(C)(C)C)c(O)c(C(C)(C)C)c2)c1 | 73 to 75 °C
55 | CCCN(CCN)CCNC(=O)c1nc(Cl)c(N)nc1N | 91 to 94 °C
56 | CS(=O)(=O)CC(=O)NCCn1ccc2ncnc(Nc3ccc(Oc4cccc(Cl)c4)c(Cl)c3)c21 | 206 to 207 °C
57 | O=S(=O)(F)c1c(F)nc2ccccn12 | 108 to 110 °C
58 | CCCC(CC)c1nc(C)nc2c1c(C)c(C)n2-c1c(C)cc(C)cc1C (stereo not drawn) | 100 to 102 °C
59 | Cc1c(CNC(C)C)ncn1C(c1ccccc1)(c1ccccc1)c1ccccc1 | 150 to 154 °C
60 | COC(=O)NC1CCc2ccc(NC(=O)c3cccc(C)c3-c3ccc(C(F)(F)F)cc3)cc2CC1 (stereo not drawn) | 190 to 193 °C
61 | CCOC(OCC)c1ccccc1CN(CCn1ccc2oc(C)cc2c1=O)Cc1ccc2c(c1)N(C)C(=O)C(C)(C)C(=O)N2CC | 138 to 139 °C
62 | Cc1cc2[nH]c3ncccc3c(=O)n2n1 | > 300 °C
63 | CC1(C)COC(=O)OC1 | 108 to 109 °C
64 | CC(=O)NC[C@H]1CN(c2ccc3c(c2)CCS(=O)(=O)CC3)C(=O)O1 | 142 to 144 °C
65 | Cc1csc(N)c1S(=O)(=O)CC#N | 88 to 90 °C
66 | CCOC(=O)CC12C(OS(=O)(=O)C(F)(F)F)=CC(C(C)CCCC(C)C)C1(C)CCC1=C2CCC2CC(OC(=O)c3ccccc3)CCC12C (stereo not drawn) | 132 to 134 °C
67 | CCC(C)(CC)C(=O)C=C(P(=O)(O)O)P(=O)(O)O | 146 to 147 °C
68 | CCOC(=O)c1cnc2c([N+](=O)[O-])cccc2c1N(C)C | 76 to 77 °C
69 | CC(=O)NC[C@H]1CN(c2ccc(N3C[C@H]4CN(C(=O)CO)C[C@H]4C3)c(F)c2)C(=O)O1 | 167 to 168 °C
70 | COc1cccc2c1nc(C(F)F)n2-c1nc(N2CCOCC2)c2ncn(-c3cncnc3)c2n1 | 248 to 251 °C
71 | CCCN(CCC)c1c([N+](=O)[O-])cc(C#N)c(C)c1[N+](=O)[O-] | 97 to 99 °C
72 | CC(C)(C)c1cc(C=C2SC(=S)NC2=O)cc(C(C)(C)C)c1O | 260 °C
73 | Cc1cc(C(N)=O)ccc1N | 124 °C
74 | CCOc1ccc2c(c1)n(C1CCCCC1)c(=O)n2S(=O)(=O)c1ccc(NC(=O)NC(C)(C)C)cc1OC | 237 °C
75 | CCCCSC(=NC(=O)N(CCC)CCC)NC(=O)NC(C)(C)C | 92 to 94 °C
76 | c1cc2c3c(cccc3c1)NN=N2 | 80 to 81 °C

Row | SMILES | melting point
77 | O=C(C=Cc1ccc2c(c1)OCO2)C1CC1 | 85 to 87 °C
78 | CCCn1nc(C(C)C)c(C(=O)OCC)c1Cc1ccc(-c2ccccc2S(=O)(=O)NC(=O)c2ccccc2)cc1 | 159 to 160 °C
79 | CC(C)Cc1ccccc1Sc1c(O)cc(-c2cccc(-c3ccccc3)c2)oc1=O | 187 to 188 °C
80 | CCOc1ccc(OCCCc2cn(-c3ccc(C(F)(F)F)cn3)nc2OCC)c(CCC(=O)O)c1 | 104 to 105 °C
81 | COc1cc(F)c(-c2cncc(OC3SCC(O)C(O)C3O)c2)c(F)c1 (stereo not drawn) | 200 °C
82 | CCOC(=O)Cc1nsc2ccc(-n3c(=O)cc(C(F)(F)F)n(C)c3=O)cc12 | 150 to 152 °C
83 | CC(C)(C)c1cc(-c2c(C(=O)O)c(=O)oc3cc4c(cc23)CCC4)cc(C(C)(C)C)c1O | 256 to 260 °C
84 | Oc1c(I)cccc1-c1c(Cl)cccc1Cl | 51 to 53 °C
85 | Cc1ccc2c(c1)N=C(N1CCN(C)CC1)c1cccc3ccn-2c13 | 202 to 204 °C
86 | CC(C)Oc1cc([N+](=O)[O-])ccc1-n1cccc1 | 59 to 61 °C
87 | O=c1ccn(-c2cccc(C(F)(F)F)c2)nc1-c1c[nH]nc1-c1ccccc1 | 206 to 208 °C
88 | CC(C)Oc1ccccc1C=C(C=O)C(C=O)=Cc1ccccc1OC(C)C | 109 to 110 °C
89 | O=P(Oc1ccc(S(=O)(=O)c2ccc(OP(=O)(c3ccccc3)c3ccccc3)cc2)cc1)(c1ccccc1)c1ccccc1 | 210 to 211 °C
90 | COc1ccc(C2(Oc3c(F)c(F)c(F)c(F)c3F)CCN(C)CC2)cc1 | 70 to 80 °C
91 | CCC(C)C(NC(=O)C(C)CS)C(=O)O (stereo not drawn) | 164 °C
92 | O=C(O)C1=Cc2cc(Br)cc(Cl)c2OC1C(F)(F)F (stereo not drawn) | 221 to 222 °C
93 | Cc1ccc(C(=O)CBr)o1 | 60 to 63 °C
94 | CC(C)Oc1ccc2nc(COc3ccc(CC4SC(=O)NC4=O)cc3)n(C)c2n1 (stereo not drawn) | 210 to 212 °C
95 | CC#CNc1c([N+](=O)[O-])cc(C(F)(F)F)c(Cl)c1[N+](=O)[O-] | 86 to 87 °C
96 | O=C1c2ccc(C(F)(F)F)cc2CCC1CN1CCC2(CC1)C(=O)NCN2c1ccccc1 (stereo not drawn) | 159 to 162 °C
97 | CC1(C)C(=O)Nc2cc3[nH]c(-c4cnccn4)nc3cc21 | > 300 °C
98 | C=CCOc1cc(C(O)CS(C)(=O)=O)cc(OCC=C)c1NC(C)=O (stereo not drawn) | 162 °C
